Data as given in patent publication US11632948B2, “Recrystallization inhibitor” (THE UNIVERSITY OF WARWICK, priority 2017, dated 2023).
No end group written: not given here.

assay: Ice recrystallisation inhibition (IRI) SPLAT assay; details: 30 min at −8° C., relative to PBS control
Description: A series of peptides were tested for IRI activity using a SPLAT assay. Briefly, this involved seeding a large number of small ice crystals, which were annealed for 30 minutes at −8° C., before being photographed. The average crystal size was then measured, relative to a PBS control, with smaller values indicating more IRI activity, FIGS. 3B/1C.
Ice recrystallisation inhibition (IRI) activity was measured using a modified splat assay. A 10 μL sample of polymer dissolved in PBS buffer (pH 7.4) was dropped 1.40 m onto a chilled glass coverslip, resting on a thin aluminium block placed on dry ice. Upon hitting the coverslip, a wafer with diameter of approximately 10 mm and thickness 10 μm was formed instantaneously. The glass coverslip was transferred onto the Linkam cryostage and held at −8° C. under N2 for 30 minutes. Photographs were obtained using an Olympus CX 41 microscope with a UIS-2 20 ×/0.45/∞/0-2/FN22 lens and crossed polarizers (Olympus Ltd, Southend-on-Sea, UK), equipped with a Canon DSLR 500D digital camera. Images were taken of the initial wafer (to ensure that a polycrystalline sample had been obtained) and again after 30 minutes. Image processing was conducting using Image J, which is freely available. In brief, five of the largest ice crystals in the field of view were measured and the single largest length in any axis recorded. The average (mean) of these five measurements was then calculated to find the largest grain dimension along any axis. This was repeated for three individual wafers, and the average (mean) of these three values was calculated to give the mean largest grain size (MLGS). The average value was compared to that of a PBS buffer negative control.

Row | Compound | IRI activity
1 | poly(proline) | significant IRI activity
2 | poly(lysine) (KKKKKKKKKKKKKKKKKKKKKKKKKKKKKKKKKKKKKKKKKKKKKKKKKK; Poly(lysine) with 50 Lys residues) [PLys50] | no IRI
3 | poly(glutamic acid) [PGlu110] | no IRI
4 | PGlu10: poly(glutamic acid) 10-mer (SEQ ID NO: 18), computationally modelled | no IRI activity
5 | O=C(O)[C@@H]1CCCN1 [proline, L-proline] | no IRI activity
6 | poly-L-proline mol wt 1,000-10,000 [PPro10-100] | potent inhibition

same assay, conditions: comparison

Row | Compound | IRI activity compared to another polymer
7 | poly(proline) | more active than poly(hydroxyproline)

assay: not given; details: from cited references; cited from earlier work

Row | Compound | IRI activity (literature)
8 | Nisin A (ITSISLCTPGCKTGALMGCNMKTATCHCSIHVSK; also: lantibiotic, lanthionine rings and dehydro residues not placed; UniProt P13068 24-57, looked up) [a short antimicrobial peptide] | pH dependent IRI activity
9 | poly(hydroxyproline) | potent IRI activity
